Biological target: T1, JAK3 (Homo sapiens, UniProt P52333)
T1 construct: purchased Thermo Fisher Scientific (Life Technologies) SelectScreen
Experiment: SelectScreen Z'LYTE
Type: biochemical
Method in brief: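 NU5455 was profiled across the SelectScreen Broad panel of kinase activity and binding assays. Z'LYTE reactions such as CSF1R ran at apparent Km ATP, while the Adapta CAMK1 assay used ATP listed as 10. Values are given as percent.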

T1 sequence (P52333 whole entry): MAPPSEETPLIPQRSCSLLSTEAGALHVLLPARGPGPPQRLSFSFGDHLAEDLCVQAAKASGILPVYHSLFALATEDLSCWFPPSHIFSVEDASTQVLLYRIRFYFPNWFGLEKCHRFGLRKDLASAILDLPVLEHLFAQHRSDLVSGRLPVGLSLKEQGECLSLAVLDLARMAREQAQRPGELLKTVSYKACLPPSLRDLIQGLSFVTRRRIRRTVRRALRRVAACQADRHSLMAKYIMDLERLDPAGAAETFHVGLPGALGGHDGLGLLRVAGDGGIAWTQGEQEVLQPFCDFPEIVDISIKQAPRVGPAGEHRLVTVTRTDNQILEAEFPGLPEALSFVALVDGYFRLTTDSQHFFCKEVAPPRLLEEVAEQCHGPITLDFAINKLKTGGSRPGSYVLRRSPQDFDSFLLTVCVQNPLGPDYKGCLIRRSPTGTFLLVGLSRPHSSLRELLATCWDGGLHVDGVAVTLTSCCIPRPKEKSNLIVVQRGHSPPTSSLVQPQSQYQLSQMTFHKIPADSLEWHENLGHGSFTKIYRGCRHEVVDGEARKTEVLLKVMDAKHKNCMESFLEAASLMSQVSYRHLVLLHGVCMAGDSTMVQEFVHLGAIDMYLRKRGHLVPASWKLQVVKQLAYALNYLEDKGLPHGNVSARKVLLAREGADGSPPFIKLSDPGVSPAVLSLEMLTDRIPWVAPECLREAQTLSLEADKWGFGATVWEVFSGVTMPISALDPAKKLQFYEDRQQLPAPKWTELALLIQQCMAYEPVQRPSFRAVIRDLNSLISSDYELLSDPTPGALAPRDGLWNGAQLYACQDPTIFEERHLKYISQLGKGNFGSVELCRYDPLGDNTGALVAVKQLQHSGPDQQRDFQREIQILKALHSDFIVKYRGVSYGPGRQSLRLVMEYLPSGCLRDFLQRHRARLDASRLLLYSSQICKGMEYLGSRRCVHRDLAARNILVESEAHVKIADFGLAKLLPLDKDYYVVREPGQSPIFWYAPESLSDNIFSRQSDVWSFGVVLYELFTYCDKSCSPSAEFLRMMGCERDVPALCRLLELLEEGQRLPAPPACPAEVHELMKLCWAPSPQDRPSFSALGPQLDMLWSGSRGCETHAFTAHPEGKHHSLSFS

CN(C(=O)CN1CCOCC1)c1ccc2sc3c(-c4cccc5c(=O)cc(N6CC7CCC(C6)O7)oc45)cccc3c2c1 [NU5455]
inhibition at 1 µM: 6%
